# Legend:
# [1] = test system: primary adrenocortical cells; assay: Flow cytometry with Mitotracker Green and TMRE in primary adrenocortical cells treated with SC-26196; type: cell-based, WT C57BL/6J mice; details: SC-26196 10 µM, 18 h vs DMSO; n=6
# Procedure: Adrenocortical cells (CD31-CD45-) were treated for 18 h with DMSO or SC-26196 (10 µM) and were then incubated with Mitotracker Green (0.25 µM; Invitrogen), TMRE (2.5 µM; Thermofisher), for 30 min at 37°C in FACS buffer (0.5 % BSA, 2 mM EDTA in PBS) in dark. Live cells were selected by DAPI staining. FACS was performed using LSR Fortessa X20 flow cytometer and data were analyzed with the FlowJo software.
# NCI-H295R cells = assay: Steroid production in forskolin-treated NCI-H295R cells treated with SC-26196; type: cell-based, Human; details: FADS2 inhibition (SC-26196)
# Procedure: NCI-H295R cells (obtained from ATCC Cat# CRL-2128) were maintained in DMEM/F12 medium supplemented with 2.5 % Nu-Serum type I (Corning), 1 % Insulin Transferrin Selenium (ITS; Gibco), 50 U/mL penicillin and 50 µg/mL streptomycin. They were treated for 18 h with 10 µM SC-26196 or DMSO. In some experiments, NCI-H295R cells were treated or not for 48 h 66 µM EPA and in the last 24 h they were stimulated or not with forskolin (10 µM; Sigma-Aldrich).
# Steroid hormones in plasma and cell culture supernatants were analyzed by LC-MS/MS as previously described (71). Fifty to hundred µL plasma or cell culture supernatants were extracted by solid phase extraction using positive pressure, followed by a dry-down under gentle stream of nitrogen. Residues were reconstituted in 100 µL of the initial LC mobile phase and 10 µL were injected for detection by the triple quadrupole mass spectrometer in multiple reaction-monitoring scan mode using positive electrospray ionization. Quantification of steroid concentrations was done by comparisons of ratios of analyte peak areas to respective peak areas of stable isotope labeled internal standards obtained in samples to those of calibrators.
# [2] = test system: primary adrenocortical cultures; assay: Medulla explant-conditioned medium on primary adrenocortical cell cultures, steroids by LC-MS/MS; type: cell-based, WT C57BL/6J mice
# Procedure: Medullas were isolated from WT C57BL/6J mice and transferred into DMEM/F12 medium. Six hours later the medulla explant supernatants were collected and applied onto adrenocortical cell cultures. These were previously treated for 6 h with SC-26196 (10 µM) or DMSO. SC-26196 or DMSO were re-added and adrenocortical cells were incubated for another 18 h until supernatants were collected for steroid measurement. In other experiments, medulla explants were treated for 6 h with SC-26196 (10 µM) or DMSO, washed thoroughly and left another 18 h in culture. Their supernatant was then applied on adrenocortical cell cultures and 8 h later supernatants of the latter were collected and analyzed by LC-MS/MS.
# Steroid hormones in plasma and cell culture supernatants were analyzed by LC-MS/MS as previously described (71). Fifty to hundred µL plasma or cell culture supernatants were extracted by solid phase extraction using positive pressure, followed by a dry-down under gentle stream of nitrogen. […] Quantification of steroid concentrations was done by comparisons of ratios of analyte peak areas to respective peak areas of stable isotope labeled internal standards obtained in samples to those of calibrators.
# HFD mice = assay: Hair corticosteroid levels (LC-MS/MS) in HFD mice given dietary SC-26196; type: in vivo, WT C57BL/6J mice
# Procedure: Six weeks-old male WT C57BL/6J mice were fed for 20 weeks a LFD (D12450B, Research Diets, NJ, USA) or a HFD (D12492, Research Diets, NJ, USA). In some experiments, WT C57BL/6J mice were fed for 8 weeks a HFD and for another 8 weeks a HFD supplemented with SC-26196 (Biorbyt Ltd). SC-26196 was mixed in the HFD at a concentration of 625 mg/kg of diet corresponding to approx. 100 mg/kg of animal weight. In other experiments WT mice were fed for 10 weeks a HFD and for another 10 weeks a HFD supplemented with icosapent ethyl (Vascepa). The content of Vascepa capsules was mixed by Research Diets with the diet at a concentration of 1.125 g/kg icosapent ethyl (corresponding to approx. 180 mg/kg of animal weight). Mice were weighed every week. Glucose and insulin tolerance tests were performed as previously described (20, 21). Three to five mg of hair (2-3 mm close to the skin on the back of the mice) were cut while gently holding the mice without anaesthesia.
# Corticosterone and 11-dehydrocorticosterone in hair were extracted with methanol as described elsewhere. In brief, hair (3-5 mg) was washed by addition of 2.5 mL isopropanol. After 3 minutes the isopropanol was decanted and hair samples were dried in a fume hood. After drying, hair samples were extracted in 1.8 mL methanol that contained the internal standard mixtures for 18 h at room temperature. Finally, the methanolic extract was dried down, followed by reconstitution in respective mobile phase and analysis by LC-MS/MS as previously described with minor modifications. […] Corticosterone and 11-dehydrocorticosterone were detected by using the multi reaction monitoring scan mode with respective quantifier ions of 347.1->329.2 and 345.1->121.1, and qualifier ions of 347.1->90.9 and 345.1->242.3. […] Quantification of steroid hormones was achieved by comparisons of ratios of analyte peak areas to internal standard peak areas observed in samples to those in calibrators. Measured steroid concentrations were normalized to sample weights.
# [3] = 6 weeks after SC-26196 treatment start, HFD containing 0.625 g/kg SC-26196 vs control, n=8-10
structure (smiles),measurement,setting,value
N#CC(CCCN1CCN(/N=C/c2cccnc2)CC1)(c1ccccc1)c1ccccc1 [SC-26196],mitochondrial load (Mitogreen staining),[1],decreased
same,mitochondrial membrane potential (TMRE staining),[1],decreased
same,11-deoxycortisol production,NCI-H295R cells,reduced
same,progesterone production,NCI-H295R cells,reduced
same,steroid synthesis in cells receiving medulla-conditioned medium,"[2]; adrenocortical cells treated 6 h with SC-26196 10 µM, then conditioned medium for another 18 h, n=4-6",diminished steroid synthesis
same,"increase of progesterone, 11-dehydrocorticosterone and corticosterone production by medulla-conditioned supernatants","[2]; medulla explants treated 6 h with SC-26196 10 µM, washed, 18 h culture, supernatant on adrenocortical cells 8 h, n=8",attenuated
same,levels of 11-dehydrocorticosterone in newly-grown hair,"HFD mice; 3 weeks after SC-26196 treatment start, HFD containing 0.625 g/kg SC-26196 (approx. 100 mg/kg of animal weight) vs control",reduced
same,11-dehydrocorticosterone levels in the hair,HFD mice; [3],reduced
same,corticosterone levels in the hair,HFD mice; [3],reduced
